Key:
AgORco+AgOR10 [1] = target: T1, AgORco+AgOR10 (Anopheles gambiae, UniProt Q7QCC7); assay: Fluo-4 Ca2+ imaging, HEK293 cells expressing Orco+AgOR10; assay type: cell-based; conditions: AgORco+AgOR10 cells; not seen in control cells
T1 construct: expressed in transfected cells
T1 sequence (Q7QCC7 1-478): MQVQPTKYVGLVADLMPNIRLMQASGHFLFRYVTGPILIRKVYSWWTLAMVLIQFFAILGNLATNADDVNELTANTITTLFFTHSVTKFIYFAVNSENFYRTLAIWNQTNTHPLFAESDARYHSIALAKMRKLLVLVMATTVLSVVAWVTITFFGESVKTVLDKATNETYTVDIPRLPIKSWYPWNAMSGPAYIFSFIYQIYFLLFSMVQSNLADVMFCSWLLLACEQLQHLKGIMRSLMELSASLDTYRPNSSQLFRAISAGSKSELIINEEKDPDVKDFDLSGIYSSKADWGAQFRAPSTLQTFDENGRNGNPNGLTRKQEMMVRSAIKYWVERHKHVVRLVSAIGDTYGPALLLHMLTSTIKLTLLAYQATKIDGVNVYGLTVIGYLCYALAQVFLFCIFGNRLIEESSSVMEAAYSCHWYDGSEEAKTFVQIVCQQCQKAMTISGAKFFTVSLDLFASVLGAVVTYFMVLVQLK
Outline: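 Stable Flp-In T-REx 293 lines co-expressing Orco and OR, induced overnight with 0.3 u-g/ul tetracycline, loaded with 1.8 uM Fluo-4 AM plus 2.5 mM probenecid for 45 min at 37 °C. Ca2+ mobilization read after 20 s baseline and compound addition; Max/Min ratios normalized to the maximum responder.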

AgORco+AgOR10 [2] = target: T1, AgORco+AgOR10; assay: Whole-cell patch clamp, HEK293 cells expressing AgORco+AgOR10; assay type: cell-based
Protocol: (§1) Currents from OR-expressing HEK293 cells were amplified with an Axopatch 200b Amplifier (Axon Instruments) and digitized through a Digidata 1322A (Axon Instruments). Electrophysiological data was recorded and analyzed using pCLAMP 10 (Axon Instruments). Electrodes were fabricated from quartz tubing (Sutter Instruments) and pulled to 4-6 MiΩ for whole cell recording. Electrodes were filled with internal solution (120 mM KCl, 30 mM D-glucose, 10 mM HEPES, 2 mM MgCl2, 1.1 mM EGTA, and 0.1 CaCl2) (pH 7.35, 280 mOsm). External (bath) solution contained 130 mM NaCl, 34 mM D-glucose, 10 mM HEPES, 1.5 mM CaCl2), 1.3 mM KH2PO4, and 0.5 MgSO4 (pH 7.35, 300 mOsm). Compounds were diluted in external solution and locally perfused to the recording cell using Perfusion Pencil (Automate Scientific) and controlled by a ValveLink 8.2 controller (Automate Scientific). Whole cell recordings were sampled at 10 kHz and filtered at 5 kHz. Outside-out patches were obtained using 10-15MΩ electrodes pulled from standard glass capillaries (World Precision Instruments) and fire-polished with an MF-830 micro forge (Narishige). Single channel recordings were sampled at 20 kHz. Recordings were reduced to 1 kHz and low-pass filtered at 500 Hz for display and analysis using QuB (SUNY at Buffalo).
To test the hypothesis that VUAA1 directly agonized AgORco, whole-cell patch clamp responses were examined in AgORco+AgOR10 expressing cells as well as HEK293 cells stably expressing AgORco alone. […] The VUAA1-dependent currents in AgORco+AgOR10 cells resembled those resulting from application of benzaldehyde, an orthosteric agonist of AgOR10 (FIG. 3C) (Wang, 2010; Carey, 2010). […] To investigate the specificity of VUAA1 agonism, the inventors transiently transfected HEK cells with the AgORco orthologs of Drosophila melanogaster and Heliothis virescens, DmORco and HvOR2 respectively.

[3] = target: T2, rat transient receptor potential vanilloid 1 (rTRPV1) (Rattus norvegicus, UniProt O35433); assay: Whole-cell patch clamp, HEK cells stably expressing rTRPV1; assay type: cell-based
T2 construct: expressed in transfected cells
T2 sequence (O35433 whole entry): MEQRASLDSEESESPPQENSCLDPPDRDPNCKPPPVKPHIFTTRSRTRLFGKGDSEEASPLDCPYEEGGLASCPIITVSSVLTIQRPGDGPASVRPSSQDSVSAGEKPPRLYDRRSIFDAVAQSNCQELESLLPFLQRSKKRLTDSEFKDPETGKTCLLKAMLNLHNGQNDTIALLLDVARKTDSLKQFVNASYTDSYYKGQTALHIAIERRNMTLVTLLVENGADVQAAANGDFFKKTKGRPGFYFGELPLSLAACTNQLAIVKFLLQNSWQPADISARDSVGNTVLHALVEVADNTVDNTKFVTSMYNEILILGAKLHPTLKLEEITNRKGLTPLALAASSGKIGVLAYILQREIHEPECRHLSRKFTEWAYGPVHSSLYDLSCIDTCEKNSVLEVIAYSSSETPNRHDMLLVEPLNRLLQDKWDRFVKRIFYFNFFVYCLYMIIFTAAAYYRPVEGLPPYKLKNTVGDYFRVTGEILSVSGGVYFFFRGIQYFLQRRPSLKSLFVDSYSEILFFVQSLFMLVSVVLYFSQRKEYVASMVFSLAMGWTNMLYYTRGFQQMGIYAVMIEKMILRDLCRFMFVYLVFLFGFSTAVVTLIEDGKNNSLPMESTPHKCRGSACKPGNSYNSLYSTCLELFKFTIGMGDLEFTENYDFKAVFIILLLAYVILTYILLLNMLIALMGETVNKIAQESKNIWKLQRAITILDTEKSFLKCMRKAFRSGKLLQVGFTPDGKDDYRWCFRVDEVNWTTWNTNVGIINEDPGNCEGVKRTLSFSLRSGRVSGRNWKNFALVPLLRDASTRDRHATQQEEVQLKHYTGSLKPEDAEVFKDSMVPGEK

[4] = test system: Un-transfected HEK293 cells; assay: Whole-cell patch clamp, un-transfected HEK293 control cells; assay type: cell-based, human
Protocol: as §1

SMILES: CCc1ccc(NC(=O)CSc2nnc(-c3cccnc3)n2CC)cc1 [VUAA1, 2-((4-ethyl-5-(pyridin-3-yl)-4H-1,2,4-triazol-3-yl)thio)-N-(4-ethylphenyl)acetamide]
- response in plate-based calcium imaging (AgORco+AgOR10 [1]): concentration-dependent responses
- whole-cell current response (AgORco+AgOR10 [2]; AgORco+AgOR10 cells, holding potential −60 mV): concentration-dependent inward currents
- reversal potential of agonist-induced current (AgORco+AgOR10 [2]; AgORco+AgOR10 complexes, mean s.e.m.): −4.8±3.0 mV
- whole-cell current response at −5.0 log M (AgORco+AgOR10 [2]; −5.0 log M): inward currents
- whole-cell current response [3]: did not elicit currents
- whole-cell current response [4]: did not respond

— patent US11484032B2, “Compositions for inhibition of insect sensing” (Vanderbilt University, priority 2011, dated 2022)
